Laboratory results as given in paper PMC4906375, “Contribution of Amphipathicity and Hydrophobicity to the Antimicrobial Activity and Cytotoxicity of β-Hairpin Peptides” (ACS Infectious Diseases, 2016).
In brackets after ≈: the same amount, converted by molar mass. Where two headings read alike, the source gives them in different places. Residues, ends and D or L forms follow the SMILES beside them.

What was measured:
[1] = Cytotoxicity, Alamar Blue (resazurin) assay; type: cell-based, human; conditions: human
Method: Cytotoxicity to HEK293 and HepG2 cells was determined using the Alamar Blue (resazurin) assay,[55],[56] with 24 h of incubation and either 1 or 10% serum concentration. Full assay details are included in the Supporting Information.
Cytotoxicity. Cytotoxicity to HEK293 and HepG2 cells was determined using the Alamar Blue (resazurin) assay,3, 4 For the assays supplemented with 1 % FBS as final concentration the cells were seeded one day prior to the assay (3,000 per 20 µL for HEK293 and 4,000 per 20 µL for HepG2) with DMEM + 2 % FBS. The compounds were prepared as described below, using DMEM with no FBS instead to give the final FBS concentration of 1 %.
The highest concentration the compounds were tested was 300 µg/mL. A dilution series of 1:3 fold steps in DMEM (GIBCOPInvitrogen, cat. no. 11995P073) + 10 % FBS was created (concentration range of 600 µg/mL – 0.28 µg/mL), and 20 µL of these 2x concentrated compound dilutions were added in duplicates to wells of a black wall, clear bottom 384Pwells cell culture plate. For the assays with 1 % FBS the compounds in 0 % FBS were added to the existing cell plates in 2 % FBS. 200 µM Tamoxifen (Sigma T5648) served as negative control and in addition a serial dilution of tamoxifen, starting at 200 µM (74 µg/mL), was included as a dose response control (1 in 2 dilution series for tamoxifen). For the assay with 10 % FBS, HepG2 cells were seeded at 5000 cells per well, in a volume of 20 µL in DMEM medium + 10 % of FBS and added to the 20 µL of compound solution (total volume of 40 µL), resulting in a final compound concentration range of 300 µg/mL to 0.14 µg/mL.
Cells were incubated together with the compounds for 20 h at 37 °C, 5 % CO2.
After the incubation, 5 µL of 100 µM (25 µg/mL) resazurin dissolved in PBS (final concentration was approximately 11 µM) was added to each well. The plates were then incubated for 3 h at 37 °C, 5 % CO2. The fluorescence intensity was read using the TECAN Infinite M1000 PRO with excitation/emission 560/590. The data was analysed by Graph Pad Prism software. Results are presented as the average percentage of control ± SD for each set of duplicate wells using the following equation: Cell survival % = (FISAMPLE – FINegative/FIUNTREATED –FINegative)*100. (100 µg/mL tamoxifen was set as 0 % survival, media

C. albicans ATCC 90028 = assay: microbe, parasite or virus in culture; type: cell-based, Candida albicans
Method: Both antibacterial and antifungal MIC assays were performed by a broth microdilution plate based method as per CLSI guidelines for antimicrobial susceptibility testing.[53],[54] […] Full assay details are included in the Supporting Information with a full list of strains tested in Table S1.
Antibacterial assay (Minimum Inhibitory Concentration [MIC]).
MIC assay was performed by a broth microdilution plate based method as per CLSI guidelines for antimicrobial susceptibility testing of aerobic bacteria.1 Compounds were prepared at 1.28 mg/mL solution in water. The tested strains, Table S1, were cultured in Luria broth (LB) (In Vitro Technologies, USB75852), at 37 °C overnight. A sample of culture was then diluted 40Pfold in fresh Muller Hinton broth (MHB) (Bacto laboratories, 211443) and incubated at 37 °C for 1.5P2 h. The compounds were serially diluted twoPfold across the wells, with compound concentrations ranging from 0.015 µg/mL to 512 µg/mL, plated in duplicate. The resultant midPlog phase cultures were diluted to the final concentration of 1×10^6 CFU/mL, then 50 µL was added to each well of the compoundP containing 96Pwell plates (Corning 3641, NonPbinding Surface [NBS]), giving a final compound concentration range of 0.008 µg/mL to 256 µg/mL and 5x10^5 CFU/mL. All the plates were covered and incubated at 37 °C for 18 h. MICs were determined visually, being defined as the lowest concentration showing no visible growth. Resazurin was added at 0.001% final concentration to each well and incubated for 2 h before MICs were rePread for confirmation using the colour change from blue to pink to indicate wells containing viable cells. The resazurin assay was added in some wells where some form of precipitate was present in otherwise clear wells, making it difficult to ascertain which wells had visible […]
Antifungal assay (Minimum Inhibitory Concentration [MIC]). MIC assay was performed by a broth microdilution plate based method as per CLSI guidelines for antimicrobial susceptibility testing.2 Fungi strains, Table S1, were cultured for 3 days on Yeast ExtractPPeptone Dextrose (YPD) (SigmaPAldrich, Y1500) agar at 30 °C. A yeast suspension of 1x10^6 to 5x10^6 CFU/mL was prepared from five colonies. These stock suspensions were diluted with Yeast Nitrogen Base (YNB) (Becton Dickinson, 233520) broth to a final concentration of 2.5 ×10^3 CFU/mL. All samples, compounds and standards were plated in 96Pwell plates (Corning 3641, NonPbinding Surface [NBS]), by adding 10 µL of 1.28 mg/mL stock solution to each well and 90 µL of media. Then, the samples were serial diluted (1:2) in 12 concentrations across the plate. The standard antifungal ranged from 256 […]
µg/mL to 0.12 µg/mL and compounds from 128 µg/mL to 0.06 µg/mL with final volumes of 50 µL per well, plated in duplicate. Then, 50 µL of the fungi suspension that was previously prepared in YNB broth to the final concentration of 2.5×10^3 CFU/mL, was added to each well of the compoundPcontaining plates, giving a final standard compound concentration range of 128 µg/mL to 0.06 µg/mL and tested compound from 64 µg/mL to 0.03 µg/mL. Plates were covered and incubated at 35 °C for 24 h. Candida albicans MICs were determined by measuring the absorbance at OD530. For Cryptococcus neoformans 10 µL of 0.06 % resazurin were added to the 24 h incubated plates. Then, these plates were incubated for another 3 h.
Cryptococcus neoformans MICs were determined by measuring the absorbance at OD570P600. […]

[2] = HEK293 cells, HEK293, 1% FBS, read-out: cytotoxicity HEK293 1% FBS
[3] = HEK293 cells, HEK293, 10% FBS, read-out: cytotoxicity HEK293 10% FBS
[4] = HepG2 cells, HepG2, 1% FBS, read-out: cytotoxicity HepG2 1% FBS
[5] = HepG2 cells, HepG2, 10% FBS, read-out: cytotoxicity HepG2 10% FBS

CC(C)[C@@H]1NC(=O)CNC(=O)[C@H](CC(N)=O)NC(=O)[C@H](CCCNC(=N)N)NC(=O)[C@H](Cc2ccc(O)cc2)NC(=O)[C@H](C(C)C)NC(=O)[C@@H]2CSSC[C@H](NC(=O)[C@H](C(C)C)NC(=O)[C@H](CCCNC(=N)N)NC1=O)C(=O)N[C@@H](Cc1ccc(O)cc1)C(=O)N[C@@H](CCCNC(=N)N)C(=O)N[C@@H](CCCNC(=N)N)C(=O)N[C@H](C(=O)N[C@@H](CC(N)=O)C(=O)O)CSSC[C@H](NC(=O)[C@H](Cc1ccccc1)NC(=O)CN)C(=O)N[C@@H](Cc1c[nH]c3ccccc13)C(=O)N[C@@H](Cc1ccc(O)cc1)C(=O)N[C@@H](C(C)C)C(=O)N2 [arenicin-3] (HELM PEPTIDE1{G.F.C.W.Y.V.C.V.Y.R.N.G.V.R.V.C.Y.R.R.C.N}$PEPTIDE1,PEPTIDE1,3:R3-20:R3|PEPTIDE1,PEPTIDE1,7:R3-16:R3$$$V2.0)
CC50 at 24 h [1, 2]: 105 ± 1.8 µg/mL (≈ 40 µM) | CC50 at 24 h [1, 3]: > 300 µg/mL | CC50 at 24 h [1, 4]: 95.2 ± 4.1 µg/mL (≈ 36.4 µM) | CC50 at 24 h [1, 5]: > 300 µg/mL | MIC (C. albicans ATCC 90028; ATCC 90028): 64 µg/mL (≈ 24.5 µM)

CC(C)[C@@H]1NC(=O)[C@H](CCCNC(=N)N)NC(=O)[C@H](Cc2ccccc2)NC(=O)[C@@H](NC(=O)[C@H](Cc2c[nH]c3ccccc23)NC(=O)[C@H](CCCNC(=N)N)NC(=O)[C@@H](N)CCCNC(=N)N)CSSC[C@@H](C(=O)N[C@@H](CCCNC(=N)N)C(N)=O)NC(=O)[C@H](CCCCN)NC(=O)[C@H](CCCNC(=N)N)NC(=O)[C@H](Cc2ccc(O)cc2)NC(=O)[C@@H]2CSSC[C@H](NC1=O)C(=O)N[C@@H](Cc1ccc(O)cc1)C(=O)N[C@@H](CCCNC(=N)N)C(=O)NCC(=O)N[C@@H](Cc1ccccc1)C(=O)N2 [polyphemusin-1] (HELM PEPTIDE1{R.R.W.C.F.R.V.C.Y.R.G.F.C.Y.R.K.C.R.[am]}$PEPTIDE1,PEPTIDE1,4:R3-17:R3|PEPTIDE1,PEPTIDE1,8:R3-13:R3$$$V2.0)
CC50 at 24 h [1, 2]: 36.6 ± 1.4 µg/mL (≈ 14.9 µM) | CC50 at 24 h [1, 3]: 188.5 ± 1.1 µg/mL (≈ 76.8 µM) | CC50 at 24 h [1, 4]: 36.5 ± 8.6 µg/mL (≈ 14.9 µM) | CC50 at 24 h [1, 5]: 254 ± 14.2 µg/mL (≈ 104 µM) | MIC (C. albicans ATCC 90028; ATCC 90028): 1 µg/mL (≈ 0.407 µM)

[H][C@]12CSSC[C@]([H])(NC(=O)[C@]([H])([C@@H](C)CC)NC(=O)CNC(=O)[C@H](CCCNC(=N)N)NC(=O)[C@H](Cc3ccc(O)cc3)NC1=O)C(=O)N[C@@H](Cc1ccc(O)cc1)C(=O)N[C@@H](CCCNC(=N)N)C(=O)N[C@@H](CCCNC(=N)N)C(=O)N[C@H](C(=O)N[C@@H](CCCNC(=N)N)C(N)=O)CSSC[C@H](NC(=O)[C@H](Cc1c[nH]c3ccccc13)NC(=O)[C@@H](N)CCCCN)C(=O)N[C@@H](Cc1ccccc1)C(=O)N[C@@H](CCCNC(=N)N)C(=O)N[C@@H](C(C)C)C(=O)N2 [tachyplesin-1] (HELM PEPTIDE1{K.W.C.F.R.V.C.Y.R.G.I.C.Y.R.R.C.R.[am]}$PEPTIDE1,PEPTIDE1,3:R3-16:R3|PEPTIDE1,PEPTIDE1,7:R3-12:R3$$$V2.0)
CC50 at 24 h [1, 2]: 94.7 ± 1.1 µg/mL (≈ 41.8 µM) | CC50 at 24 h [1, 3]: > 300 µg/mL | CC50 at 24 h [1, 4]: 65.7 ± 1.5 µg/mL (≈ 29 µM) | CC50 at 24 h [1, 5]: > 300 µg/mL | MIC (C. albicans ATCC 90028; ATCC 90028): 4 µg/mL (≈ 1.77 µM)

CC[C@H](C)[C@H](NC(=O)[C@@H](NC(=O)[C@@H]1CCCN1C(=O)[C@@H](NC(=O)[C@@H]1CCCN1C(=O)[C@H](CCCCN)NC(=O)[C@H](CCCCN)NC(=O)[C@H](CO)NC(=O)CN)C(C)C)[C@@H](C)CC)C(=O)N[C@@H](Cc1ccc(O)cc1)C(=O)N[C@H]1CSSC[C@@H](C(=O)N[C@@H](CCC(N)=O)C(=O)N[C@@H](CCCNC(=N)N)C(=O)N[C@@H](CCSC)C(N)=O)NC(=O)[C@H](CCCCN)NC(=O)CNC(=O)[C@H]([C@@H](C)O)NC(=O)[C@H](CCCNC(=N)N)NC(=O)[C@H](CCCNC(=N)N)NC(=O)[C@H](CC(N)=O)NC1=O [thanatin]
CC50 at 24 h [1, 2]: > 300 µg/mL | CC50 at 24 h [1, 3]: > 300 µg/mL | CC50 at 24 h [1, 4]: > 300 µg/mL | CC50 at 24 h [1, 5]: > 300 µg/mL | MIC (C. albicans ATCC 90028; C. albicans ATCC 90028, n = 4): 64 µg/mL (≈ 26.3 µM)
